In ChEMBL document CHEMBL3627651, “Fine tuning of agonistic/antagonistic activity for vitamin D receptor by 22-alkyl chain length of ligands: 22S-Hexyl compound unexpectedly restored agonistic activity” (Bioorg Med Chem, 2015):
Active and inactive are the calls of the source. The calls are words filed in the database; no cut-off is given here.

What was measured:
Vitamin D3 receptor = molecular target: T1, Vitamin D3 receptor (Homo sapiens, UniProt P11473); assay: Displacement of [3H]-1alpha,25-dihydroxyvitamin D3 from recombinant human VDR LBD expressed in Escherichia coli BL21 (DE3) pLysS after 16 hrs
T1 sequence (P11473 whole entry): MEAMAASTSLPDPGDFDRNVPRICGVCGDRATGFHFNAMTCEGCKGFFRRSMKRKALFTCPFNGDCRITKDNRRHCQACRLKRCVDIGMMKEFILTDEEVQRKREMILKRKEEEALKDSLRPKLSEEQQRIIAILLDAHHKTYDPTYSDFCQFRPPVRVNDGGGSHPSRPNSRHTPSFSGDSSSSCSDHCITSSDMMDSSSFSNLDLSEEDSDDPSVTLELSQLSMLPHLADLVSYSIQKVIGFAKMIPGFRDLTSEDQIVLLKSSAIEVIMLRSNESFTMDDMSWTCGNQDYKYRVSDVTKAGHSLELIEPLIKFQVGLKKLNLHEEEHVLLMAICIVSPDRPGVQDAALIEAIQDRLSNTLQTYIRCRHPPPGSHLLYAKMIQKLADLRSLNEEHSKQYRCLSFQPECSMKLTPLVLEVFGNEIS

[1] = molecular target: T2, Vitamin D3 receptor (Homo sapiens) (UniProt P11473); assay: Agonist activity at human VDR transfected in African green monkey COS7 cells assessed as induction of transcriptional activity at 10^-10 to 10^-5 M after 16 hrs by dual luciferase reporter gene assay; assay type: cell-based; settings: COS-7
T2 sequence (whole entry): T1 sequence (P11473 whole entry)

For `C=C1[C@H](O)CC(=C/C=C2\CCC[C@]3(C)[C@@H]([C@H](C)[C@H](CCO)CCCCCC)CC[C@@H]23)C[C@H]1O`, the IC50 (Vitamin D3 receptor) was 0.21 nM and the Activity [1] was “Active”.
